Data taken from publication PMC9917560, “Design, Synthesis and Antimicrobial Evaluation of New N-(1-Hydroxy-1,3-dihydrobenzo[c][1,2]oxaborol-6-yl)(hetero)aryl-2-carboxamides as Potential Inhibitors of Mycobacterial Leucyl-tRNA Synthetase” (International Journal of Molecular Sciences, 2023).
Converted amounts (≈) assume the structure as drawn. Read-outs that look alike come from different tables or passages of the source.

Assays:
[1] = tested on: Mycobacterium tuberculosis H37Ra ITM-M006710 (ATCC 9431); assay: Antimycobacterial microdilution (resazurin) vs Mtb H37Ra; type: cell-based; details: Middlebrook 7H9, resazurin, recalculated from µg/mL, read-out: MIC Mtb H37Ra
[2] = tested on: Mycobacterium tuberculosis H37Rv CNCTC My 331/88 (ATCC 27294); assay: Microplate Alamar Blue assay vs Mtb H37Rv; type: cell-based; details: Mycobacterium tuberculosis, pH 6.6, MABA, Middlebrook 7H9 pH 6.6, recalculated from µg/mL; read-out: MIC Mtb H37Rv
[3] = tested on: Mycobacterium avium DSM 44,156 (ATCC 25291); assay: Antimycobacterial microdilution (resazurin) vs M. avium; type: cell-based; details: Mycobacterium avium, Middlebrook 7H9, resazurin; read-out: MIC M. avium
[4] = tested on: Mycolicibacterium smegmatis DSM 43,465 (ATCC 607); assay: Antimycobacterial microdilution (resazurin) vs M. smegmatis; type: cell-based
[5] = tested on: Mtb IZAK (MDR clinical isolate); assay: microbe, parasite or virus in culture; type: cell-based; details: Mycobacterium tuberculosis, read-out: MIC Mtb IZAK
[6] = tested on: Mtb MATI (MDR clinical isolate); assay: microbe, parasite or virus in culture; type: cell-based; details: Mycobacterium tuberculosis, read-out: MIC Mtb MATI
[7] = tested on: Staphylococcus aureus subsp. aureus CCM 4223 (ATCC 29213); assay: Antibacterial microdilution broth (EUCAST); type: cell-based; details: read-out: MIC Staphylococcus aureus subsp. aureus
[8] = tested on: methicillin-resistant Staphylococcus aureus subsp. aureus (MRSA) CCM 4750 (ATCC 43300); assay: microbe, parasite or virus in culture; type: cell-based; details: read-out: MIC Methicillin-resistant Staphylococcus aureus subsp. aureus
[9] = tested on: Staphylococcus epidermidis CCM 4418 (ATCC 12228); assay: Antibacterial microdilution broth (EUCAST); type: cell-based; details: read-out: MIC Staphylococcus epidermidis
[10] = tested on: Enterococcus faecalis CCM 4224 (ATCC 29212); assay: Antibacterial microdilution broth (EUCAST); type: cell-based; details: read-out: MIC Enterococcus faecalis
[11] = tested on: Escherichia coli CCM 3954 (ATCC 25922); assay: Antibacterial microdilution broth (EUCAST); type: cell-based; details: Escherichia coli, read-out: MIC Escherichia coli
[12] = tested on: Klebsiella pneumoniae CCM 4415 (ATCC 10031); assay: Antibacterial microdilution broth (EUCAST); type: cell-based; details: Klebsiella pneumoniae, read-out: MIC Klebsiella pneumoniae
[13] = tested on: Acinetobacter baumannii DSM 30007 (ATCC 19606); assay: Antibacterial microdilution broth (EUCAST); type: cell-based; details: read-out: MIC Acinetobacter baumannii
[14] = tested on: Pseudomonas aeruginosa CCM 3955 (ATCC 27853); assay: Antibacterial microdilution broth (EUCAST); type: cell-based; details: read-out: MIC Pseudomonas aeruginosa
[15] = tested on: Candida albicans CCM 8320 (ATCC 24433); assay: Antifungal microdilution broth (EUCAST); type: cell-based; details: Candida albicans, read-out: MIC Candida albicans
[16] = tested on: Candida krusei CCM 8271 (ATCC 6258); assay: Antifungal microdilution broth (EUCAST); type: cell-based; details: Pichia kudriavzevii, read-out: MIC Candida krusei
[17] = tested on: Candida parapsilosis CCM 8260 (ATCC 22019); assay: Antifungal microdilution broth (EUCAST); type: cell-based; details: Lodderomyces parapsilosis, read-out: MIC Candida parapsilosis
[18] = tested on: Candida tropicalis CCM 8264 (ATCC 750); assay: Antifungal microdilution broth (EUCAST); type: cell-based; details: read-out: MIC Candida tropicalis
[19] = tested on: Aspergillus fumigatus ATCC 204305; assay: Antifungal microdilution broth (EUCAST); type: cell-based; details: Aspergillus fumigatus, ATCC204305, read-out: MIC Aspergillus fumigatus
[20] = tested on: Aspergillus flavus CCM 8363; assay: Antifungal microdilution broth (EUCAST); type: cell-based; details: Aspergillus flavus, CCM8363, read-out: MIC Aspergillus flavus
[21] = tested on: Lichtheimia corymbifera CCM 8077; assay: Antifungal microdilution broth (EUCAST); type: cell-based; details: Lichtheimia corymbifera, CCM8077, read-out: MIC Lichtheimia corymbifera
[22] = tested on: Trichophyton interdigitale CCM 8377 (ATCC 9533); assay: Antifungal microdilution broth (EUCAST); type: cell-based; details: Trichophyton interdigitale, read-out: MIC Trichophyton interdigitale
HepG2 cell line = assay: Cytotoxicity screening, CellTiter 96 assay; details: for IC50: Homo sapiens, HepG2, 24 h, read-out: IC50 HepG2
[23] = tested on: Mycobacterium kansasii DSM 44,162 (ATCC 12478); assay: Antimycobacterial microdilution (resazurin) vs M. kansasii; type: cell-based; details: Middlebrook 7H9, resazurin, read-out: MIC M. kansasii
[24] = tested on: Mycolicibacterium aurum DSM 43,999 (ATCC 23366); assay: Antimycobacterial microdilution (resazurin) vs M. aurum; type: cell-based; details: Middlebrook 7H9, resazurin, read-out: MIC M. aurum
Mtb laboratory ID IZAK = type: cell-based, Mycobacterium tuberculosis; details: strain IZAK; for Susceptibility: CLSI breakpoints 2020
Mtb laboratory ID MATI = type: cell-based, Mycobacterium tuberculosis; details: strain MATI; for Concentration: CLSI 2021; for Susceptibility: CLSI breakpoints 2021
[25] = Middlebrook 7H9, resazurin, read-out: MIC M. smeg.

**Q.** What does the source list for `O=C(Nc1ccc2c(c1)B(O)OC2)c1ccccn1` [Compound 10, N-(1-hydroxy-1,3-dihydrobenzo[c][1,2]oxaborol-6-yl)picolinamide]?
**A.** MIC [1]: < 62 µM; MIC [2]: < 62 µM; MIC [3]: < 62 µM; MIC [4, 25]: < 62 µM; MIC ([4]; read-out: MIC M. smeg., Middlebrook 7H9, resazurin): 61.5 µM (≈ 15.6 µg/mL); MIC [5]: 98.4 µM (≈ 25 µg/mL); MIC [6]: 98.4 µM (≈ 25 µg/mL); MIC ([7]; 24h incubation): 250 µM (≈ 63.5 µg/mL); MIC ([7]; 48h incubation): 250 µM (≈ 63.5 µg/mL); MIC ([8]; 24 h): 250 µM (≈ 63.5 µg/mL); MIC ([8]; 48 h): 250 µM (≈ 63.5 µg/mL); MIC ([9]; 24h incubation): 500 µM (≈ 127 µg/mL); MIC ([9]; 48h incubation): 500 µM (≈ 127 µg/mL); MIC ([10]; 24h incubation): > 500 µM; MIC ([10]; 48h incubation): > 500 µM; MIC ([11]; 24h incubation): > 500 µM; MIC ([11]; 48h incubation): > 500 µM; MIC ([12]; 24h incubation): > 500 µM; MIC ([12]; 48h incubation): > 500 µM; MIC ([13]; 24h incubation): > 500 µM; MIC ([13]; 48h incubation): > 500 µM; MIC ([14]; 24h incubation): > 500 µM; MIC ([14]; 48h incubation): > 500 µM; MIC ([15]; 24h incubation): > 500 µM; MIC ([15]; 48h incubation): > 500 µM; MIC ([16]; 24h incubation): > 500 µM; MIC ([16]; 48h incubation): > 500 µM; MIC ([17]; 24h incubation): > 500 µM; MIC ([17]; 48h incubation): > 500 µM; MIC ([18]; 24h incubation): > 500 µM; MIC ([18]; 48h incubation): > 500 µM; MIC ([19]; 24h incubation): > 500 µM; MIC ([19]; 48h incubation): > 500 µM; MIC ([20]; 24h incubation): > 500 µM; MIC ([20]; 48h incubation): > 500 µM; MIC ([21]; 24h incubation): > 500 µM; MIC ([21]; 48h incubation): > 500 µM; MIC ([22]; 72h incubation): > 500 µM; MIC ([22]; 120h incubation): > 500 µM; melting point: 183.7 to 186.1 °C; IC50 (HepG2 cell line): > 1000 µM

**Q.** What does the source list for `O=C(Nc1ccc2c(c1)B(O)OC2)c1cnc2ccccc2n1` [Compound 17, N-(1-hydroxy-1,3-dihydrobenzo[c][1,2]oxaborol-6-yl)quinoxaline-2-carboxamide]?
**A.** MIC [1]: > 819 µM; MIC [2]: 20.5 µM (≈ 6.25 µg/mL); MIC [23]: 25.6 µM (≈ 7.81 µg/mL); MIC [3]: 102 µM (≈ 31.3 µg/mL); MIC [24]: 12.8 µM (≈ 3.91 µg/mL); MIC [4, 25]: 12.8 µM (≈ 3.91 µg/mL); MIC [5]: 41 µM (≈ 12.5 µg/mL); MIC [6]: 41 µM (≈ 12.5 µg/mL); MIC ([7]; 24h incubation): > 500 µM; MIC ([7]; 48h incubation): > 500 µM; MIC ([8]; 24 h): > 500 µM; MIC ([8]; 48 h): > 500 µM; MIC ([9]; 24h incubation): > 500 µM; MIC ([9]; 48h incubation): > 500 µM; MIC ([10]; 24h incubation): > 500 µM; MIC ([10]; 48h incubation): > 500 µM; MIC ([11]; 24h incubation): > 500 µM; MIC ([11]; 48h incubation): > 500 µM; MIC ([12]; 24h incubation): > 500 µM; MIC ([12]; 48h incubation): > 500 µM; MIC ([13]; 24h incubation): > 500 µM; MIC ([13]; 48h incubation): > 500 µM; MIC ([14]; 24h incubation): > 500 µM; MIC ([14]; 48h incubation): > 500 µM; MIC ([15]; 24h incubation): > 500 µM; MIC ([15]; 48h incubation): > 500 µM; MIC ([16]; 24h incubation): > 500 µM; MIC ([16]; 48h incubation): > 500 µM; MIC ([17]; 24h incubation): > 500 µM; MIC ([17]; 48h incubation): > 500 µM; MIC ([18]; 24h incubation): > 500 µM; MIC ([18]; 48h incubation): > 500 µM; MIC ([19]; 24h incubation): > 500 µM; MIC ([19]; 48h incubation): > 500 µM; MIC ([20]; 24h incubation): > 500 µM; MIC ([20]; 48h incubation): > 500 µM; MIC ([21]; 24h incubation): > 500 µM; MIC ([21]; 48h incubation): > 500 µM; MIC ([22]; 72h incubation): > 500 µM; MIC ([22]; 120h incubation): > 500 µM; IC50 (HepG2 cell line): > 250 µM; toxicity to HepG2 up to highest tested concentration (HepG2 cell line; tested up to 500 µM (2, 3), 250 µM (12, 17), 100 µM (6, 7, 11) because of solubility): non-toxic

**Q.** For `CC[C@@H](CO)NCCN[C@@H](CC)CO` [EMB, ethambutol], which MIC [2] is on record?
**A.** The MIC was 1.91 µM (≈ 0.39 µg/mL).

**Q.** What about the MIC [5] of the same compound?
**A.** Its MIC is 7.64 µM (≈ 1.56 µg/mL).

**Q.** And the MIC [6]?
**A.** Its MIC is 7.64 µM (≈ 1.56 µg/mL).

**Q.** What about the Concentration (Mtb laboratory ID IZAK; CLSI 2020) of the same compound?
**A.** The Concentration was 2.45 µM.

**Q.** What about the Susceptibility (Mtb laboratory ID IZAK) of the same compound?
**A.** Its Susceptibility is “sensitive”.

**Q.** And the Concentration (Mtb laboratory ID MATI)?
**A.** Its Concentration is 2.45 µM.

**Q.** What about the Susceptibility (Mtb laboratory ID MATI) of the same compound?
**A.** The Susceptibility was “sensitive”.

**Q.** With `NNC(=O)c1ccncc1` [INH, isoniazid, reference compound] as the compound, how does the MIC [1] read?
**A.** The MIC was 3.65 µM (≈ 0.501 µg/mL).

**Q.** And the MIC [2]?
**A.** Its MIC is 2.84 µM (≈ 0.389 µg/mL).

**Q.** And the MIC [23]?
**A.** Its MIC is 45.6 µM (≈ 6.25 µg/mL).

**Q.** What about the MIC [3] of the same compound?
**A.** The MIC was 7290 µM (≈ 1000 µg/mL).

**Q.** And the MIC [24]?
**A.** The MIC was 28.5 µM (≈ 3.91 µg/mL).

**Q.** What about the MIC [4, 25] of the same compound?
**A.** Its MIC is 228 µM (≈ 31.3 µg/mL).

**Q.** And the MIC [5]?
**A.** The MIC was 91.2 µM (≈ 12.5 µg/mL).

**Q.** And the MIC [6]?
**A.** Its MIC is greater than 91.2 µM.

**Q.** What about the Susceptibility (Mtb laboratory ID IZAK) of the same compound?
**A.** Its Susceptibility is “resistant”.

**Q.** And the Concentration (Mtb laboratory ID MATI)?
**A.** The Concentration was greater than 58.33 µM.

**Q.** And the Susceptibility (Mtb laboratory ID MATI)?
**A.** Its Susceptibility is “resistant”.
